Patent publication US12152038B2, “Vasopressin receptor antagonists and products and methods related thereto” (Neumora Therapeutics, Inc., priority 2017, dated 2024)

How the values were obtained:
[1] = target: T1, human Arginine Vasopressin Receptor 1a (AVPR1a) (Homo sapiens, UniProt P37288); assay: Vasopressin V1a receptor antagonist assay (FLIPR calcium, CHO-AVPR1a cells); type: cell-based
T1 construct: expressed in transfected cells; host or cells: CHO (CHO-AVPR1a, kept under G418 selection)
Outline: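 CHO cells expressing human AVPR1a were loaded with Calcium-6 dye and preincubated with compound for 15 min at 37° C. Cells were then challenged with AVP at its daily-determined EC80, and FLIPR fluorescence was read. Compounds were tested in duplicate as 10-point 1:3 dilutions from a top final concentration of 3 μM.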

[2] = target: T2, human Arginine Vasopressin Receptor V2 (AVPR2) (Homo sapiens, UniProt P30518); assay: Vasopressin V2 receptor antagonist assay (TR-FRET cAMP, 1321N1 cells); type: cell-based
T2 construct: host or cells: 1321N1 (cAMPZen V2 assay ready frozen cells)
Experimental: The purpose of the assay was to determine the inhibitory effect of synthesized compounds on the Vasopressin receptor 2. The assay was performed in commercially available 1321N1 cells expressing the human Arginine Vasopressin Receptor V2 (AVPR2) (Perkin Elmer #ES-363-CF). Arginine Vasopressin (AVP) evokes an increase in intracellular cAMP in these cells which is measured in a TR-FRET assay using a Europium cAMP tracer and ULight labelled antibody reagents contained in a LANCE Ultra cAMP kit (Perkin Elmer #TRF0263). Increases in cAMP in the assay result in a reduction in TR-FRET as the cAMP produced by the stimulated cells competes with the Eu-cAMP tracer for binding sites on the ULight labelled antibody. Test compounds were assessed for their ability to affect the magnitude of the response to AVP, with antagonists showing a concentration-dependent decrease in the AVP-mediated reduction in TR-FRET signal.
cAMPZen V2 assay ready cells were thawed at 37° C. and resuspended directly from frozen in 9 ml growth medium consisting of DMEM supplemented with 10% v/v fetal bovine serum, 1× non-essential amino acids, and 1 mM sodium pyruvate. Cells were spun at 1000 rpm for 3 minutes and the supernatant was carefully removed and discarded. The pellet was resuspended in 5 ml stimulation buffer and the cell density determined using the Vi-Cell automated cell counter. The cell suspension was diluted to a 0.2×10^6/ml suspension ready for plating. To all wells of a white 384-well Optiplate (Perkin Elmer #6007299) 5 μL of cells in stimulation buffer were dispensed (1,000 cells per well). Stimulation buffer consisted of HBSS (+Ca/+Mg) supplemented with 5 mM HEPES, 0.1% BSA stabiliser and 0.5 mM IBMX.
At the start of each assay day the potency of AVP was assessed and an EC80 concentration determined for subsequent compound profiling. Assays were performed by first an addition of 2.5 μl of control or test compound at 4× final concentration in stimulation buffer followed by 2.5 μl of AVP at 4× final concentration in stimulation buffer. After a 1 hour reaction, detection reagents were added by first an addition of 5 μl EU-cAMP tracer, followed by 5 μl ULight-anti-cAMP both diluted as per the manufacturer's instructions. After a one hour incubation, plates were ready to be read (signals then remained stable for up to 24 hours). Changes in time resolved fluorescence were monitored with excitation via a laser (337 nm) measuring both 615 nm and 665 nm emission wavelengths. […] For compound profiling, test compounds were dispensed by the Labcyte Echo (10-point curve, 1:3 dilutions) in a target 0.1 μl volume then diluted 750-fold in stimulation buffer containing 3% DMSO prior to addition to the cells. At the end of the incubation period, 2.5 μl of AVP in stimulation buffer was added at the previously determined EC80 concentration.
In-plate controls for the assay included a Tolvaptan concentration-response curve as the reference V2 antagonist and an AVP concentration-response curve to confirm the reproducibility of the EC80 used for the compound challenge.

T2 sequence (P30518 whole entry): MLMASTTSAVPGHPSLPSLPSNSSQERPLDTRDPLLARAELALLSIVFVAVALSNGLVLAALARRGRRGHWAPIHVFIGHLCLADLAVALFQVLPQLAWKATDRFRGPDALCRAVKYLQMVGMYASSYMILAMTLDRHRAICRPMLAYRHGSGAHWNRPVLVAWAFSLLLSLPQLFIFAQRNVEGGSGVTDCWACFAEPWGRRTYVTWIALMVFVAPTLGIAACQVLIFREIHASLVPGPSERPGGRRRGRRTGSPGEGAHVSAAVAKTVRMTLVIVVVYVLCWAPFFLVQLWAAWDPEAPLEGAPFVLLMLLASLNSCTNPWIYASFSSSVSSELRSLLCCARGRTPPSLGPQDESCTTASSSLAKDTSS
T1 sequence (P37288 whole entry): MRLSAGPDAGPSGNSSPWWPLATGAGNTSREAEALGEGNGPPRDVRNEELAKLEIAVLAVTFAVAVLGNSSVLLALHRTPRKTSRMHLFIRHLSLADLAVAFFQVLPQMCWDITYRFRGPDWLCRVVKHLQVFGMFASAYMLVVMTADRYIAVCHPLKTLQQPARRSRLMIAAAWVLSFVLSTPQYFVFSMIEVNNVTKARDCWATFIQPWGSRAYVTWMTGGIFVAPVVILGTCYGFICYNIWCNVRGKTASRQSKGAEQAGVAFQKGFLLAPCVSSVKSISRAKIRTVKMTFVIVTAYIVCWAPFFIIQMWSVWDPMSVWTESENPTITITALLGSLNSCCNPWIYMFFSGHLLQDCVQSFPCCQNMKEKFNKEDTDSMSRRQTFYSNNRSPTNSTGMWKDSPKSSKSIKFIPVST

| IC50 [1] [nM] | IC50 [2] [nM] | Compound |
| --- | --- | --- |
| < 100 | ≥ 1000 | CC1COc2cc(F)c(F)cc2N1C(=O)N1CC2(C1)CN(c1ncccn1)C2 (centres unmarked) [19-1, (6,7-difluoro-3-methyl-2,3-dihydro-4H-benzo[b][1,4]oxazin-4-yl)(6-(pyrimidin-2-yl)-2,6-diazaspiro[3.3]heptan-2-yl)methanone] |
| < 100 | ≥ 1000 | CC1COc2cc(Cl)c(F)cc2N1C(=O)N1CC2(C1)CN(c1ncccn1)C2 (centres unmarked) [19-2] |
| < 100 | ≥ 1000 | CC1COc2cc(F)c(F)cc2N1C(=O)N1CC2(C1)CN(c1cccnn1)C2 (centres unmarked) [19-3] |
| < 100 | ≥ 1000 | CC1COc2cc(Cl)c(F)cc2N1C(=O)N1CC2(C1)CN(c1cccnn1)C2 (centres unmarked) [19-4] |
| < 100 | < 100 | CC1COc2cc(F)c(F)cc2N1C(=O)N1CC2(C1)CN(c1ccc(F)cn1)C2 (centres unmarked) [19-5] |
| < 100 | ≥ 1000 | CC1COc2cc(Cl)c(F)cc2N1C(=O)N1CC2(C1)CN(c1cccnc1)C2 (centres unmarked) [19-6] |
| < 100 | ≥ 1000 | CC1COc2cc(Cl)ccc2N1C(=O)N1CC2(C1)CN(c1cccnc1)C2 (centres unmarked) [20-1, (7-chloro-3-methyl-2,3-dihydro-4H-benzo[b][1,4]oxazin-4-yl)(6-(pyridin-3-yl)-2,6-diazaspiro[3.3]heptan-2-yl)methanone] |
| < 100 | < 100 | Cc1cncc(N2CC3(CN(C(=O)N4c5ccc(F)cc5OCC4C)C3)C2)n1 (centres unmarked) [20-2] |
| < 100 | < 100 | CC1COc2cc(Cl)ccc2N1C(=O)N1CC2(C1)CN(c1cc(C#N)ccn1)C2 (centres unmarked) [20-6] |
| < 100 | 100 to 500 | Cc1nc(N2CC3(CN(C(=O)N4c5ccc(Cl)cc5OCC4C)C3)C2)ncc1F (centres unmarked) [20-7] |
| < 100 | 100 to 500 | COc1ccnc(N2CC3(CN(C(=O)N4c5ccc(Cl)cc5OCC4C)C3)C2)c1 (centres unmarked) [20-8] |
| < 100 | 100 to 500 | COc1ccnc(N2CC3(CN(C(=O)N4c5ccc(Cl)cc5OCC4C)C3)C2)n1 (centres unmarked) [20-9] |
| < 100 | 500 to 1000 | Cc1nccnc1N1CC2(CN(C(=O)N3c4ccc(Cl)cc4OCC3C)C2)C1 (centres unmarked) [20-10] |
| < 100 | < 100 | Cc1ccnc(N2CC3(CN(C(=O)N4c5ccc(Cl)cc5OCC4C)C3)C2)c1 (centres unmarked) [20-11] |
| < 100 | < 100 | Cc1ccnc(N2CC3(CN(C(=O)N4c5ccc(Cl)cc5OCC4C)C3)C2)n1 (centres unmarked) [20-12] |
| < 100 | 100 to 500 | Cc1cnc(N2CC3(CN(C(=O)N4c5ccc(Cl)cc5OCC4C)C3)C2)nc1 (centres unmarked) [20-13] |
